These results are taken from PMC4569415, “Pro-Oxidant Activity of Amine-Pyridine-Based Iron Complexes Efficiently Kills Cancer and Cancer Stem-Like Cells” (PLoS ONE, 2015).

Counter-ions that a name gives are not always drawn. A value given as a limit tells only on which side of the number the result lay.

Data set [1] relates to CAPAN-1 cells. Kind of data set: MTT cytotoxicity assay. The note with it: MTT, 48 h of compound exposure. The data set is classed as cell-based, human. Here is the method: (§1) The cytotoxic activity of the compounds was determined by MTT reduction assay as described. Compounds were diluted in Milli-Q water to obtain 1 mmol/L stock solutions. Appropriate aliquots of these solutions were diluted in the corresponding cell culture medium to obtain the final working concentrations. Aliquots of 5000 1BR3G cells, 6000 MCF-7, 6000 PC-3 cells, 10 000 CAPAN-1 cells, 4000 MCF 10A cells, 4000 HMLE cells or 4000 CCD-18Co cells were seeded in 96-well plates, 24 h prior to the treatments. Hematological cell lines were seeded at 400 000 cells/mL. Cells were treated with the corresponding compound at concentrations ranging from 0 to 100 μmol/L for 48 h. Three replicates for each compound were used. The IC50 was established for each compound by standard non-linear regression and curve fitting using GraphPad Prism (Graph Pad software Inc., La Jolla, CA, USA).
For orientation: Formazan colour is commonly taken as a measure of viable cells.

For data set [2], the system named is MCF-7 cells. Kind of data set: MTT cytotoxicity assay. It counts as cell-based, human. The following applies: MTT, 48 h of compound exposure. Here is the method:
as §1

The test system of data set [3] is 1BR3G. Kind of data set: MTT cytotoxicity assay. It counts as cell-based. The note with it: Homo sapiens, 48 h of treatment, non malignant cells. How it is done: as §1
Data set [4] relates to CCD-18Co. As to the kind of experiment: MTT cytotoxicity assay. The data set is classed as cell-based. The following applies: Homo sapiens, 48 h of treatment, non malignant cells. How it is done: as §1
Data set [5] relates to HMLE. Kind of data set: MTT cytotoxicity assay. The following applies: Homo sapiens, 48 h of treatment, non malignant cells. It counts as cell-based. How it is done:
as §1

Data set [6] relates to JURKAT. Kind of data set: MTT cytotoxicity assay. It counts as cell-based. The note with it: Homo sapiens, 48 h of treatment. How it is done:
as §1

In data set [7] the test system is MCF-10A. Kind of data set: MTT cytotoxicity assay. The note with it: Homo sapiens, 48 h of treatment, non malignant cells. The data set is classed as cell-based. Here is the method: as §1
Data set [8] has as its system PC-3. Kind of data set: MTT cytotoxicity assay. It counts as cell-based. The following applies: Homo sapiens, 48 h of treatment. How it is done: as §1
Data set [9] has as its system Z-138. As to the kind of experiment: MTT cytotoxicity assay. The following applies: Homo sapiens, 48 h of treatment. The data set is classed as cell-based. How it is done: as §1
Data set [10] can be described thus: Hemolytic assay. The data set is classed as cell-based. The following applies: human, erythrocyte suspension of fresh human blood (5% vol/vol). How it is done:
The hemolytic activity of the compounds at 100 μmol/L was evaluated by determining hemoglobin release from erythrocyte suspensions of fresh human blood (5% vol/vol) as described.

The test system of data set [11] is MCF-7 cells. As to the kind of experiment: Cellular labile iron pool with calcein-AM. The data set is classed as cell-based, human. The note with it: MCF-7.
In data set [12] the test system is MCF-7 and CAPAN-1 cells. As to the kind of experiment: MTT cell viability with modulators (QVD-Oph, FeCl2). The note with it: FeCl2 alone at 1, 10 or 100 μmol/L, 48 h. The data set is classed as cell-based, human. How it is done:
as §1
Fig 4 Induction of caspase activity. (A) The indicated cell lines were treated for 48 h with compounds 1, 2 and 5 (10 μmol/L) and caspase 3/7 activity was measured as indicated in Materials and Methods. Bar charts show the fold increase in caspase activity relative to untreated (control) and represent the mean±SD from three independent experiments performed in triplicate. (B) MCF-7 and CAPAN-1 cells were treated for 48 h with the ligands (10 μM) in the absence (-) or presence (+) of the pan-caspase inhibitor QVD-Oph (20 μM) and cell viability was measured with the MTT assay. […] Data represents the mean ± SD of 3 independent experiments performed in triplicate. The differences between absence and presence of QVD-OPh treatment were statistically significant at * p<0.05, **p<0.01 and ***p<0.001.
Fig 9 Effects of iron on 1, 2 and 5 activity. (A) Effect of 2 h FeCl2 pre-incubation (FeCl2 p) (dotted line) or co-incubation (FeCl2 c) (dashed line) at 1, 10 or 100 μmol/L on the cytotoxicity of 2 (5 μmol/L) in MCF-7 and CAPAN-1 cells. FeCl2 alone was included as a control (solid line). Cell viability was determined after 48 h of treatment by the MTT assay. (B) Effect of FeCl2 pre-incubation or co-incubation (100 μmol/L) on the cytotoxicity of 2 (5 μmol/L), 1 and 5 (10 μmol/L). Cells treated with the ligands alone were included as a reference (control). (C) ROS induction in CAPAN-1 cells after 24 h treatment with 2 (10 μmol/L) alone, together with FeCl2 or after FeCl2 pre-incubation (at 100 μmol/L). Results are presented as a percentage of untreated cells and represent mean±SD of 3 independent experiments. *p < 0.05 versus control cells.

Data set [13] has as its system CAPAN-1 cells. Kind of data set: Cellular labile iron pool with calcein-AM. The data set is classed as cell-based, human. The following applies: CAPAN-1, 100 μmol/L, 24 h. How it is done: The cellular labile iron pool was determined with calcein-AM. CAPAN-1 cells (125 000 cells/ well) were seeded in 24-well plates and incubated for 24 h. Then, cells were treated for 24 h with 10 μmol/L of compound 1, 2 or 5 at 37°C. In some experiments, cells were incubated for 2 h with 100 μmol/L of DFO or 100 μmol/L FeCl2. Cells exposed to the vehicle alone were used as a control. After treatments, cells were washed with PBS and incubated with calcein-AM (0.25 μmol/L) for 30 min at 37°C in the dark. Subsequently, cells were washed and collected with trypsin and the geometric mean fluorescence intensity of 10 000 cells was determined by flow cytometry as described.

Data set [14] concerns CS-like HMLER-shEcad cells. As to the kind of experiment: MTT cytotoxicity assay in cancer stem-like cells. It counts as cell-based, human. The following applies: 48 h. Here is the method: as §1
(§2) Fig 2 Cell viability assay. (A) Cytotoxic activity of compounds 1, 2, and 5 against cancer cells. The indicated cell lines were treated for 48 h with ligands (10 μmol/L) and cell viability was measured with the MTT assay. Data represents the percentage of viable cells relative to untreated cells (control). (B) Cytotoxicity of doxorubicin and compounds 1, 2 and 5 against CS-like cells. CS-like HMLER-shEcad cells and non-CS-like HMLER isogenic parental cells were treated for 48 h with graded concentrations of doxorubicin, 1, 2 and 5. Cell viability was measured with the MTT assay. For each treatment, the percentage of viable cells relative to untreated cells is indicated. Data represents the mean±SD of 3 independent experiments performed in triplicate.

The subject of data set [15] is HMLER cells. Kind of data set: MTT cytotoxicity assay in non-CS-like parental cells. The following applies: Homo sapiens, 48 h. It counts as cell-based. Here is the method:
as §1, §2

Regarding `N.N.[Cl][Pt][Cl]` [Cisplatin, reference compound], the figures for the IC50 in data set [1] and in data set [2] were 2.2 ± 0.3 µM and 2.4 ± 0.4 µM, respectively.
Regarding `CN(Cc1ccccn1)[C@H]1CCCC[C@@H]1N(C)Cc1ccccn1` [Compound 3], the IC50 – broadly, the concentration that gives 50% inhibition – is 27.7 ± 2.9 µM in data set [1] (Homo sapiens, CAPAN-1); 40.6 ± 2.5 µM in data set [2] (Homo sapiens, MCF7); 45 ± 1 µM in data set [3]; over 100 µM in data set [4]; 32.5 ± 3.8 µM in [5]; over 100 µM in data set [6]. Also, the IC50 in data set [7] amounted to 39.7 ± 2.9 µM; in [8], 35 ± 4.2 µM; in data set [9], 16.5 ± 1.4 µM. This molecule also returned a hemolysis at 100 µM in [10] of 0%.
Consider `CN1CCN(C)CCN(Cc2ccccn2)CC1` [Compound 4], for which the concentration for half-maximal inhibition (IC50) in data set [1] (Homo sapiens, CAPAN-1) is 32 ± 10.4 µM; in data set [2] (Homo sapiens, MCF7) it was 88.5 ± 0.7 µM; in data set [3] it was 78 ± 8.5 µM; in [4], over 100 µM; in [5], 47.7 ± 4.5 µM; in data set [6] it was over 100 µM. The IC50 was over 100 µM in [7], over 100 µM in data set [8] and 23.1 ± 1.8 µM in data set [9]. Besides, the hemolysis at 100 µM in data set [10] amounted to 0%.
Consider `CC(=O)N(O)CCCCCNC(=O)CCC(=O)N(O)CCCCCNC(=O)CCC(=O)N(O)CCCCCN` [DFO, deferoxaminemesylate salt, reference compound], for which, in data set [11], the “calcein fluorescence increase after DFO incubation” value is 132.1±16.5%.
`[Cl][Fe][Cl]` [FeCl2, reference compound]: in [12], the “effect on cell viability” value was “did not affect the viability”. Also, in data set [13], the “calcein fluorescence intensity, % of control cells” value is listed as 74.2±15.5%.
Take `COc1cccc2c1C(=O)c1c(O)c3c(c(O)c1C2=O)C[C@@](O)(C(=O)CO)C[C@@H]3O[C@H]1C[C@H](N)[C@H](O)[C@H](C)O1` [doxorubicin, reference compound]: the “fold increase in IC50, HMLER-shECad vs HMLER” value in data set [14] was ~ 3 fold. Moreover, the 50% inhibitory concentration (IC50) in data set [14] (Homo sapiens) worked out at 0.3 ± 0.02 µM; in [15], 0.1 ± 0.02 µM.
